Source: PMC3570346, “PET imaging of brain inflammation during early epileptogenesis in a rat model of temporal lobe epilepsy” (EJNMMI Research, 2012)

Target: T1, Translocator protein (TSPO) (Rattus norvegicus, UniProt P16257)
T1 construct: from tissue; host or cells: brain of living male Wistar rats (control and kainic acid-induced status epilepticus)
Assay: In vivo [^18F]-PBR111 PET imaging, Vt by two-compartment model with metabolite-corrected plasma input
Set-up: Tissue distribution volume (Vt): unit not given here
Source text: Seven days post-SE, rats were anaesthetised for PET imaging using isoflurane (induction 5%, maintenance 1% to 3%, in medical oxygen), and body temperature was maintained using a feedback-regulated heating pad. A catheter was implanted in the femoral artery as described above. The animal was then placed into the field-of-view of the INVEON PET/CT scanner (Siemens Medical Solutions, Knoxville, TN, USA), and physiological parameters (heart rate, respiration and body temperature) were monitored (BioVet, m2m Imaging Corp., Cleveland, OH, USA) for the entire scanning period. To avoid movement and fix tubing, the animal was restrained in the supine position using a webbed sock and adhesive tape.
The PET scan was started 20 to 30 s before the 1-min infusion of radiotracer (ID = 12.5 to 29.0 MBq, 0.05 to 0.29 nmol, max 0.4 ml in volume, as described above) for the duration of 60 min. Femoral arterial blood samples (approximately 50 μl/sample) were taken at 15-s intervals for 4 min after the commencement of the PET scan, and then at 10-, 20-, 30- and 50-min post-injections. In the last sample (100 μl), metabolites were analysed to confirm the standard metabolite correction and to calculate the partition coefficient at 50 min. Heparinised saline (20 IU) was administered after blood sampling to maintain the blood volume and to prevent hypotension. Plasma samples were collected after 10-min centrifugation of whole blood at 3,000 rpm. Whole blood and plasma samples were counted in a Wallac γ-counter, decay-corrected and weight-normalised. At the end of the PET scanning, a 10-min 70 kV/500 μA computed tomography (CT) scan was performed on each animal (for co-registration with PET data and magnetic resonance imaging (MRI) atlas).
Coincidence events were acquired into list mode files and then histogrammed into […] consecutive frames of variable duration (8 × 15 s, 6 × 20 s, 6 × 60 s, 3 × 180 s, and 5 × 500 s). The volumes were then reconstructed with an iterative algorithm 3D-OSEM/FastMap. PET images (128 × 128 × 159) were co-registered with CT scans and mapped to a MRI-based rat brain atlas. Left and right time activity curves (TACs) were derived from eight VOIs such as the frontal cortex, striatum, parietal cortex, hippocampus, thalamus, amygdala, occipital cortex and colliculi using the Anatomist package ( http://brainvisa.info). Also, the hypothalamus, brainstem, pons and cerebellum were extracted from the reconstructed images. Data were then converted into activity concentration (kBq/ml) using cross calibration factors.
Firstly, a two-compartment model was used to assess the ‘apparent’ volume of distribution (Vt), or the ‘volume’ of the tracer would occupy if the tracers were to adopt the same concentration in the tissue as in the blood. For each VOI, Vt was calculated using their TACs, the metabolite-corrected plasma curve as input function and the whole blood curve to model the kinetics of the vascular fraction (5%) in the cerebral tissue.

T1 sequence (P16257 whole entry): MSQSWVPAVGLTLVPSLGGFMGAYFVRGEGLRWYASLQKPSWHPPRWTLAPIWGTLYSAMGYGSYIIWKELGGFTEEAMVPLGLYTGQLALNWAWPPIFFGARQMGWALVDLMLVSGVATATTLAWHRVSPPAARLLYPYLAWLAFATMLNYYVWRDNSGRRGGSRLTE

With `CCN(CC)C(=O)Cc1c(-c2ccc(OCCC[18F])cc2)nc2ccc(Cl)cn12` [[^18F]-PBR111] as the compound, how does the “Increase (%) of Vt, KASE vs control” value (Amygdala, Left) read?
Its value is 288%.

And the “Tissue distribution volume (Vt)” value (Amygdala, Left, Control (N = 4))?
The value was 5.3 ± 0.8.

What about the “Tissue distribution volume (Vt)” value (Amygdala, Left, KASE (N = 4), 7 days post-SE) of the same compound?
The value was 20.6 ± 2.8.

And the “Increase (%) of Vt, KASE vs control” value (Amygdala, Right)?
The value was 284%.

And the “Tissue distribution volume (Vt)” value (Amygdala, Right, Control (N = 4))?
Its value is 6.1 ± 0.7.

What about the “Tissue distribution volume (Vt)” value (Amygdala, Right, KASE (N = 4), 7 days post-SE) of the same compound?
The value was 23.4 ± 4.8.

And the “Increase (%) of Vt, KASE vs control” value (Brainstem)?
The value was 41%.

And the “Tissue distribution volume (Vt)” value (Brainstem, Control (N = 4))?
Its value is 4.7 ± 0.8.

What about the “Tissue distribution volume (Vt)” value (Brainstem, KASE (N = 4), 7 days post-SE) of the same compound?
The value was 6.7 ± 1.0.

And the “Increase (%) of Vt, KASE vs control” value (Cerebellum)?
Its value is 43%.

And the “Tissue distribution volume (Vt)” value (Cerebellum, Control (N = 4))?
Its value is 7.5 ± 0.8.

What about the “Tissue distribution volume (Vt)” value (Cerebellum, KASE (N = 4), 7 days post-SE) of the same compound?
Its value is 10.6 ± 1.3.

What about the “Increase (%) of Vt, KASE vs control” value (Colliculi, Left) of the same compound?
The value was 44%.

And the “Tissue distribution volume (Vt)” value (Colliculi, Left, Control (N = 4))?
The value was 4.0 ± 1.0.

And the “Tissue distribution volume (Vt)” value (Colliculi, Left, KASE (N = 4), 7 days post-SE)?
Its value is 5.8 ± 1.1.

And the “Increase (%) of Vt, KASE vs control” value (Colliculi, Right)?
Its value is 70%.

And the “Tissue distribution volume (Vt)” value (Colliculi, Right, Control (N = 4))?
Its value is 4.1 ± 1.1.

What about the “Tissue distribution volume (Vt)” value (Colliculi, Right, KASE (N = 4), 7 days post-SE) of the same compound?
The value was 6.9 ± 1.8.

And the “Increase (%) of Vt, KASE vs control” value (Frontal cortex, Left)?
The value was 108%.

What about the “Tissue distribution volume (Vt)” value (Frontal cortex, Left, Control (N = 4)) of the same compound?
Its value is 5.4 ± 1.0.

What about the “Tissue distribution volume (Vt)” value (Frontal cortex, Left, KASE (N = 4), 7 days post-SE) of the same compound?
Its value is 11.3 ± 2.4.

And the “Increase (%) of Vt, KASE vs control” value (Frontal cortex, Right)?
The value was 98%.

And the “Tissue distribution volume (Vt)” value (Frontal cortex, Right, Control (N = 4))?
The value was 5.7 ± 1.2.

What about the “Tissue distribution volume (Vt)” value (Frontal cortex, Right, KASE (N = 4), 7 days post-SE) of the same compound?
Its value is 11.2 ± 2.4.

What about the “Increase (%) of Vt, KASE vs control” value (Hippocampus, Left) of the same compound?
Its value is 154%.

And the “Tissue distribution volume (Vt)” value (Hippocampus, Left, Control (N = 4))?
The value was 3.6 ± 0.5.

What about the “Tissue distribution volume (Vt)” value (Hippocampus, Left, KASE (N = 4), 7 days post-SE) of the same compound?
The value was 9.1 ± 1.1.

And the “Increase (%) of Vt, KASE vs control” value (Hippocampus, Right)?
The value was 159%.

What about the “Tissue distribution volume (Vt)” value (Hippocampus, Right, Control (N = 4)) of the same compound?
The value was 3.6 ± 0.4.

And the “Tissue distribution volume (Vt)” value (Hippocampus, Right, KASE (N = 4), 7 days post-SE)?
Its value is 9.4 ± 1.6.

And the “Increase (%) of Vt, KASE vs control” value (Hypothalamus)?
The value was 104%.

And the “Tissue distribution volume (Vt)” value (Hypothalamus, Control (N = 4))?
Its value is 4.0 ± 0.7.

What about the “Tissue distribution volume (Vt)” value (Hypothalamus, KASE (N = 4), 7 days post-SE) of the same compound?
The value was 8.2 ± 1.4.

And the “Increase (%) of Vt, KASE vs control” value (Occipital cortex, Left)?
The value was 53%.

What about the “Tissue distribution volume (Vt)” value (Occipital cortex, Left, Control (N = 4)) of the same compound?
Its value is 9.8 ± 3.4.

What about the “Tissue distribution volume (Vt)” value (Occipital cortex, Left, KASE (N = 4), 7 days post-SE) of the same compound?
The value was 15.1 ± 3.5.

And the “Increase (%) of Vt, KASE vs control” value (Occipital cortex, Right)?
Its value is 62%.

And the “Tissue distribution volume (Vt)” value (Occipital cortex, Right, Control (N = 4))?
Its value is 9.3 ± 1.4.

What about the “Tissue distribution volume (Vt)” value (Occipital cortex, Right, KASE (N = 4), 7 days post-SE) of the same compound?
Its value is 15.0 ± 1.4.

And the “Increase (%) of Vt, KASE vs control” value (Parietal cortex, Left)?
Its value is 110%.

What about the “Tissue distribution volume (Vt)” value (Parietal cortex, Left, Control (N = 4)) of the same compound?
Its value is 4.5 ± 0.6.

What about the “Tissue distribution volume (Vt)” value (Parietal cortex, Left, KASE (N = 4), 7 days post-SE) of the same compound?
The value was 9.5 ± 1.1.

And the “Increase (%) of Vt, KASE vs control” value (Parietal cortex, Right)?
The value was 136%.

What about the “Tissue distribution volume (Vt)” value (Parietal cortex, Right, Control (N = 4)) of the same compound?
The value was 4.9 ± 0.8.

What about the “Tissue distribution volume (Vt)” value (Parietal cortex, Right, KASE (N = 4), 7 days post-SE) of the same compound?
The value was 11.6 ± 2.0.

What about the “Increase (%) of Vt, KASE vs control” value (Pons) of the same compound?
The value was 78%.

And the “Tissue distribution volume (Vt)” value (Pons, Control (N = 4))?
Its value is 4.2 ± 0.9.

And the “Tissue distribution volume (Vt)” value (Pons, KASE (N = 4), 7 days post-SE)?
The value was 7.5 ± 1.8.

What about the “Increase (%) of Vt, KASE vs control” value (Striatum, Left) of the same compound?
The value was 180%.

What about the “Tissue distribution volume (Vt)” value (Striatum, Left, Control (N = 4)) of the same compound?
Its value is 2.8 ± 0.6.

And the “Tissue distribution volume (Vt)” value (Striatum, Left, KASE (N = 4), 7 days post-SE)?
The value was 8.0 ± 1.2.

What about the “Increase (%) of Vt, KASE vs control” value (Striatum, Right) of the same compound?
The value was 156%.

And the “Tissue distribution volume (Vt)” value (Striatum, Right, Control (N = 4))?
Its value is 3.0 ± 0.5.

And the “Tissue distribution volume (Vt)” value (Striatum, Right, KASE (N = 4), 7 days post-SE)?
Its value is 7.8 ± 1.1.

What about the “Increase (%) of Vt, KASE vs control” value (Thalamus, Left) of the same compound?
Its value is 173%.

What about the “Tissue distribution volume (Vt)” value (Thalamus, Left, Control (N = 4)) of the same compound?
Its value is 2.6 ± 0.5.

And the “Tissue distribution volume (Vt)” value (Thalamus, Left, KASE (N = 4), 7 days post-SE)?
Its value is 7.0 ± 1.8.

What about the “Increase (%) of Vt, KASE vs control” value (Thalamus, Right) of the same compound?
Its value is 155%.

And the “Tissue distribution volume (Vt)” value (Thalamus, Right, Control (N = 4))?
Its value is 2.8 ± 0.5.

And the “Tissue distribution volume (Vt)” value (Thalamus, Right, KASE (N = 4), 7 days post-SE)?
The value was 7.1 ± 1.4.
